Data on five compounds can be found in patent US6903083B2, “Stabilized hydroxyvitamin D” (Bone Care International, Inc., priority 2000, dated 2005).

Molecules are shown by their SMILES. Bounds are passed on as bounds.

Holding throughout (type): physicochemical
Data set [1] is described as follows: Stability testing of 1α,24(S)-dihydroxyvitamin D2 containing >0.5% residual solvents, 60° C. for 48 hours, HPLC (Example 9). To be noted: capped vial. As for the experimental part:
Approximately 1 mg of 1α,24(S)-dihydroxyvitamin D2 containing >0.5% residual solvents (non-SHVD) was placed in a capped vial and heated at 60° C. for 48 hours. The contents of the vial were dissolved in ethanol to produce a 1 mg/mL solution. The solution (10 μL) was analyzed by the following HPLC conditions: a YMC Pack Pro C18 column (4.6×150 mm, 5 μm) with a mobile phase of acetonitrile: water (50:50) at a flow rate of 1.0 mL/min.

A short description of data set [2]: Storage stability testing of SHVD2, long-term storage at −70° C., HPLC and UV. As for the experimental part: The stability of samples from four lots of SHVD2 was examined at 6-month intervals during long-term storage at −70° C. All lots were stored in the container-closure system selected as packaging for the drug substance. Stability was assessed by examining samples for changes in (1) weight percent 1α-OH-D2 content, (2) percent related substances content, and (3) impurity profile, using HPLC. In addition, all lots were examined for changes in UV spectrum by UV spectrophotometry.

Data set [3] in a line: Stability testing SHVD2 v. commercially available 1α-OH-D2, oven at about 60° C., HPLC (Example 7). The conditions noted are these: solid in test tube, present-tense example. As for the experimental part:
Approximately 1 mg of SHVD2 or commercial 1α-hydroxyvitamin D2 is placed in each of 2 (12×75 mm) test tubes. One test tube from each of the two preparations is placed in an oven at about 60° C. For analysis, the contents in each test tube are dissolved in ethanol to produce a 1 mg/mL solution. Each solution (10 μL) is analyzed by the following HPLC conditions: a YMC Pack C8 column (4.6×250 mm, 5 μm) with a mobile phase of acetonitrile: methanol: water (60:20:20) at a flow rate of 1.0 mL/min.

A short description of data set [4]: Stability testing SHVD2 v. non-SHVD2 (ethanol vapour exposed), 60° C. for 48 hours, HPLC (Example 8). To be noted: non-SHVD2 made by exposure to ethanol vapors. As for the experimental part: Approximately 1 mg of stabilized 1α-hydroxyvitamin D2 (doxercalciferol) (SHVD2) was placed in each of two test tubes (12×75 mm). One sample was placed in a dessicator containing an atmosphere of ethanol vapors to increase the residual solvent content of the material to form non-stabilized doxercalciferol (non-SHVD2). The material in the dessicator was heated at 60° C. for 48 hours. The other sample was not subjected to the ethanol atmosphere, thereby retaining its stabilized form, but was heated at 60° C. for 48 hours. The contents in each test tube were dissolved in ethanol to produce a 1 mg/mL solution. Each solution (10 μL) was analyzed by the following HPLC conditions: a YMC Pack C8 column (4.6×250 mm, 5 μm) with a mobile phase of acetonitrile: methanol: water (60:20:20) at a flow rate of 1.0 mL/min.

A short description of data set [5]: Stability testing SHVD2 v. non-SHVD2, oven at about 60° C., HPLC (Example 6). To be noted: 0 to 48 hours, solid in test tube, present-tense example. As for the experimental part:
Approximately 1 mg of SHVD2 or non-stabilized 1α-hydroxyvitamin D2 (non-SHVD2) is placed in each of 9 (12×75 mm) test tubes. The test tubes are placed in an oven at about 60° C. One test tube of each of the two vitamin D2 preparations is removed at 0, 3, 6, 9, 12, 18, 24, 36 and 48 hours of incubation. The contents in each test tube are dissolved in ethanol to produce a 1 mg/mL solution. Each solution (10 μL) is analyzed by the following HPCL conditions: a YMC Pack C8 column (4.6×250 mm, 5 μm) with a mobile phase of acetonitrile: methanol: water (60:20:20) at a flow rate of 1.0 mL/min.

Data set [6] in a line: Storage stability testing of stabilized 24-hydroxyvitamin D2, long-term storage at −70° C., HPLC and UV (Example 11). To be noted: present-tense example. As for the experimental part: The stability of samples from four lots of stabilized 24-Hydroxyvitamin D2 is examined at 6-month intervals during long-term storage at −70° C. All lots are stored in the container-closure system selected as packaging for the drug substance. Stability is assessed by examining samples for changes in (1) weight percent 24-OH-D2 content, (2) percent related substances content, and (3) impurity profile, using HPLC. In addition, all lots are examined for changes in UV spectrum by UV spectrophotometry.

On to `C=C1/C(=C\C=C2/CCC[C@]3(C)[C@@H]([C@H](C)/C=C/[C@@](C)(O)C(C)C)CC[C@@H]23)C[C@@H](O)C[C@@H]1O` [1α,24(S)-dihydroxyvitamin D2], for which the “appearance of a new compound by HPLC after heating” value in data set [1] is on record as “a compound with a relative retention time of approximately 0.85 compared with standard 1α,24(S)-dihydroxyvitamin D2 was observed”.

For `C=C1/C(=C\C=C2/CCC[C@]3(C)[C@@H]([C@H](C)/C=C/[C@H](C)C(C)C)CC[C@@H]23)C[C@@H](O)C[C@@H]1O` [SHVD2, 1α-hydroxyvitamin D2], the “impurity profile chromatography, new peaks relative to baseline” value in data set [2] (6 or 12 months) is “no new peaks”. Also, the “weight % 1α-OH-D2 content” value in data set [2] (all four lots, all time points (baseline, 6, 12 months), HPLC) is greater than 98.0%. The percent related substances in data set [2] (baseline to 12 months, HPLC) is reported as less than 2.0%. Moreover, in data set [2] (four lots), the “differences in mean weight % 1α-OH-D2 content between baseline and 6 or 12 months” value is listed as “no significant differences”.

Consider `C=C1/C(=C\C=C2/CCC[C@]3(C)[C@@H]([C@H](C)/C=C/[C@H](C)C(C)C)CC[C@@H]23)C[C@@H](O)C[C@@H]1O` [commercial 1α-hydroxyvitamin D2, 1α-hydroxyvitamin D2], for which, in data set [3], the “rate of appearance of the peak with relative retention time of approximately 0.9 compared with the 1α-hydroxyvitamin D2 peak” value is listed as “greater with the commercial 1α-hydroxyvitamin D2 than with SHVD2”.

`C=C1/C(=C\C=C2/CCC[C@]3(C)[C@@H]([C@H](C)/C=C/[C@H](C)C(C)C)CC[C@@H]23)C[C@@H](O)C[C@@H]1O` [non-SHVD2, 1α-hydroxyvitamin D2]: the “rate of appearance of the peak with relative retention time of approximately 0.9 compared with the doxercalciferol peak” value in data set [4] was “greater with the non-SHVD2 material than with SHVD2”. The “rate of appearance of the peak with relative retention time of approximately 0.9 compared with the 1α-hydroxyvitamin D2 peak” value in data set [5] was “greater with the non-SHVD2 than with SHVD2”.

`C=C1CC[C@H](O)C/C1=C/C=C1\CCC[C@]2(C)[C@@H]([C@H](C)/C=C/C(C)(O)C(C)C)CC[C@@H]12` (stereo partly drawn) [stabilized 24-Hydroxyvitamin D2, 24-hydroxyvitamin D2]: the “impurity profile chromatography, new peaks relative to baseline” value in data set [6] (6 or 12 months) is “no new peaks”. In data set [6] (all four lots, all time points), the “weight % 24-OH-D2 content” value is on record as greater than 98.0%. Besides, in data set [6] (baseline to 12 months), the percent related substances is less than 2.0%. For the same compound, the “differences in mean weight % 24-OH-D2 content between baseline and 6 or 12 months” value in data set [6] is “No significant differences”.
